This experiment concerns the target T1, recombinant human SAE enzyme (Homo sapiens, UniProt Q9UBT2).
T1 sequence (Q9UBT2 1-640): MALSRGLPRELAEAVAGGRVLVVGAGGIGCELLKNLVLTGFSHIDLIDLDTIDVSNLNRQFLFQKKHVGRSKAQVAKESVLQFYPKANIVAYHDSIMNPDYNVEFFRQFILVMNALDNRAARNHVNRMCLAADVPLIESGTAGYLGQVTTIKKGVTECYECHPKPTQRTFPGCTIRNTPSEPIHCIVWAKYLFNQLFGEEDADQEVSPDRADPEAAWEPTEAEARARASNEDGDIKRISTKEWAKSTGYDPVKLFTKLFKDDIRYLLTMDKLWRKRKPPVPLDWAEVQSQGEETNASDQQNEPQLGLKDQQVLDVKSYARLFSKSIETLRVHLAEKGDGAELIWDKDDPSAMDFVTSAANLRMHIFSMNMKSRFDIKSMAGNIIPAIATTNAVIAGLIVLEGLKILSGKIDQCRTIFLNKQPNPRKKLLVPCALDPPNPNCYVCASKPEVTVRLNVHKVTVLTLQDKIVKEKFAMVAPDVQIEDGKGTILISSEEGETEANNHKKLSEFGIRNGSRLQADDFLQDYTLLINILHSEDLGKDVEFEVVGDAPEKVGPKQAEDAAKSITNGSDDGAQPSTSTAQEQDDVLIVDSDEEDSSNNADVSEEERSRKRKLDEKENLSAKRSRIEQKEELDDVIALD
T1 sequence (Q9UBE0 1-346 partner): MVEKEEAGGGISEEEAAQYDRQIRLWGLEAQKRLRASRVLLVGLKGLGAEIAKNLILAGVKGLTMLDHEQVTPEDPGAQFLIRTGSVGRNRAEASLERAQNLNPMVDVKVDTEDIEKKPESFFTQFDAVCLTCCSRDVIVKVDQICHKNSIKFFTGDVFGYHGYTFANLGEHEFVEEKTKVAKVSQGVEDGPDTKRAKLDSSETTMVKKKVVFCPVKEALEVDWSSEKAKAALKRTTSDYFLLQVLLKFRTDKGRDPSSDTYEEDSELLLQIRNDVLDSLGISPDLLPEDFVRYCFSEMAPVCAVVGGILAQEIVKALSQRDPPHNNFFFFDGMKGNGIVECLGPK
The experiment can be described thus: SAE HTRF Enzyme Assay. The class given is biochemical. As to conditions: for IC50: class symbols A-C; for inhibition at 0.111 µM: compound concentration 0.111 μM, read-out: Percent Inhibition. In outline:
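Measured as FRET after a 2 h antibody step: SAE (0.11 nM) thioester transfer of Sumo-Flag to Ubc9-GST, 0.5 μM ATP, 24° C for 105 min, quenched with 20 mM EDTA. Output is IC50 or percent inhibition at a single concentration.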
(In general: In TR-FRET formats the signal depends on donor and acceptor labels being close together.)

These results are taken from patent publication US9695154B2, “Heteroaryl inhibitors of sumo activating enzyme” (MILLENNIUM PHARMACEUTICALS, INC., priority 2013, dated 2017).

With `NS(=O)(=O)OC[C@H]1C[C@@H](Nc2ncncc2C(=O)c2ccn(Cc3ccc(C(F)(F)F)cc3)n2)C[C@@H]1O` [Compound I-171, [(1R,2S,4R)-2-hydroxy-4-{[5-({1-[4-(trifluoromethyl)benzyl]-1H-pyrazol-3-yl}carbonyl)pyrimidin-4-yl]amino}cyclopentyl]methyl sulfamate], the IC50 (as a rule, the midpoint of a concentration-inhibition curve) was under 0.01 µM and the inhibition (in general, the percentage by which the read-out fell short of the control) at 0.111 µM is 95%.

As for `CC(C)Cn1ccc(C(=O)c2cncnc2N[C@@H]2C[C@H](COS(N)(=O)=O)[C@@H](O)[C@H]2O)n1` [Compound I-173, [(1R,2R,3S,4R)-2,3-dihydroxy-4-({5-[(1-isobutyl-1H-pyrazol-3-yl)carbonyl]pyrimidin-4-yl}amino)cyclopentyl]methyl sulfamate], the IC50 is 0.01 to 0.1 µM and the inhibition at 0.111 µM was found to be 71%.

As for `NS(=O)(=O)OC[C@H]1C[C@@H](Nc2ccncc2C(=O)c2ccn(Cc3ccc(Cl)c(C(F)(F)F)c3)n2)C[C@@H]1O` [Compound I-174, [(1R,2S,4R)-4-{[3-({1-[4-chloro-3-(trifluoromethyl)benzyl]-1H-pyrazol-3-yl}carbonyl)pyridin-4-yl]amino}-2-hydroxycyclopentyl]methyl sulfamate], the IC50 was under 0.01 µM and the inhibition at 0.111 µM was found to be 93%.

Consider `NS(=O)(=O)OC[C@H]1C[C@@H](Nc2ncncc2C(=O)c2ccn(Cc3cccc(Cl)c3)n2)[C@@H](F)[C@@H]1O` [Compound I-176, {(1R,2R,3R,4R)-4-[(5-{[1-(3-chlorobenzyl)-1H-pyrazol-3-yl]carbonyl}pyrimidin-4-yl)amino]-3-fluoro-2-hydroxycyclopentyl}methyl sulfamate], for which the IC50 was under 0.01 µM and the inhibition at 0.111 µM was found to be 98%.

Take `NS(=O)(=O)OC[C@H]1C[C@@H](Nc2ncncc2C(=O)c2ccn(Cc3cccc(Br)c3F)n2)[C@@H](F)[C@@H]1O` [Compound I-177, ((1R,2R,3R,4R)-4-((5-(1-(3-Bromo-2-fluorobenzyl)-1H-pyrazole-3 carbonyl)pyrimidin-4-yl)amino)-3-fluoro-2-hydroxycyclopentyl)methyl sulfamate]: the IC50 is under 0.01 µM and the inhibition at 0.111 µM amounted to 99%.

Take `NS(=O)(=O)OC[C@H]1C[C@@H](Nc2ncncc2C(=O)c2ccn(Cc3ccc(F)c(I)c3)n2)[C@@H](F)[C@@H]1O` [Compound I-178, {(1R,2R,3R,4R)-3-fluoro-4-[(5-{[1-(4-fluoro-3-iodobenzyl)-1H-pyrazol-3-yl]carbonyl}pyrimidin-4-yl)amino]-2-hydroxycyclopentyl}methyl sulfamate]: the IC50 is under 0.01 µM and the inhibition at 0.111 µM is 99%.

Consider `NS(=O)(=O)OC[C@H]1C[C@@H](Nc2ncncc2C(=O)c2ccn(Cc3ccc(Cl)c(Br)c3)n2)C[C@@H]1O` [Compound I-179, {(1R,2S,4R)-4-[(5-{[1-(3-bromo-4-chlorobenzyl)-1H-pyrazol-3-yl]carbonyl}pyrimidin-4-yl)amino]-2-hydroxycyclopentyl}methyl sulfamate], for which the 50% inhibitory concentration (IC50) is under 0.01 µM and the inhibition at 0.111 µM was over 99%.

In the case of `NS(=O)(=O)OC[C@H]1C[C@@H](Nc2ncncc2C(=O)c2ccn(Cc3ccc(Cl)o3)n2)C[C@@H]1O` [Compound I-180, [(1R,2S,4R)-4-{[5-({1-[(5-chloro-2-furyl)methyl]-1H-pyrazol-3-yl}carbonyl)pyrimidin-4-yl]amino}-2-hydroxycyclopentyl]methyl sulfamate], the IC50 was under 0.01 µM and the inhibition at 0.111 µM was determined as 99%.

Take `NS(=O)(=O)OC[C@H]1C[C@@H](Nc2ncncc2C(=O)c2ccn(Cc3cc(C(F)(F)F)ccc3Cl)n2)[C@@H](F)[C@@H]1O` [Compound I-181, [(1R,2R,3R,4R)-4-{[5-({1-[2-chloro-5-(trifluoromethyl)benzyl]-1H-pyrazol-3-yl}carbonyl)pyrimidin-4-yl]amino}-3-fluoro-2-hydroxycyclopentyl]methyl sulfamate]: the IC50 was under 0.01 µM and the inhibition at 0.111 µM is 94%.

Regarding `NS(=O)(=O)OC[C@H]1C[C@@H](Nc2ncncc2C(=O)c2ccn(Cc3ccccc3C(F)(F)F)n2)[C@H](O)[C@@H]1O` [Compound I-182, [(1R,2R,3S,4R)-2,3-dihydroxy-4-{[5-({1-[2-(trifluoromethyl)benzy1]-1H-pyrazol-3-yl}carbonyl)pyrimidin-4-yl]amino}cyclopentyl]methyl sulfamate], the IC50 is under 0.01 µM and the inhibition at 0.111 µM turned out to be 96%.

Turning to `NS(=O)(=O)OC[C@H]1C[C@@H](Nc2ncncc2C(=O)c2ccn(Cc3ccc(C(F)(F)F)s3)n2)C[C@@H]1O` [Compound I-183, [(1R,2S,4R)-2-hydroxy-4-({5-[(1-{[5-(trifluoromethyl)-2-thienyl]methyl}-1H-pyrazol-3-yl)carbonyl]pyrimidin-4-yl}amino)cyclopentyl]methyl sulfamate], the IC50 was under 0.01 µM and the inhibition at 0.111 µM came out at 96%.

As for `NS(=O)(=O)OC[C@H]1C[C@@H](Nc2ncncc2C(=O)c2cc(Cl)n(Cc3cccc(C(F)(F)F)c3)c2)[C@@H](F)[C@@H]1O` [Compound I-184, [(1R,2R,3R,4R)-4-{[5-({5-chloro-1-[3-(trifluoromethyl)benzyl]-1H-pyrrol-3-yl}carbonyl)pyrimidin-4-yl]amino}-3-fluoro-2-hydroxycyclopentyl]methyl sulfamate], the IC50 was under 0.01 µM and the inhibition at 0.111 µM is 97%.

Consider `NS(=O)(=O)OC[C@H]1C[C@@H](Nc2ncncc2C(=O)c2ccn(Cc3ccc(F)cc3Cl)n2)C[C@@H]1O` [Compound I-185, {(1R,2S,4R)-4-[(5-{[1-(2-chloro-4-fluorobenzyl)-1H-pyrazol-3-yl]carbonyl}pyrimidin-4-yl)amino]-2-hydroxycyclopentyl}methyl sulfamate], for which the IC50 is under 0.01 µM and the inhibition at 0.111 µM was found to be 91%.

As to `Cc1cc(C(=O)c2cncnc2N[C@@H]2C[C@H](COS(N)(=O)=O)[C@@H](O)[C@@H]2F)nn1Cc1cccc(Br)c1` [Compound I-186, {(1R,2R,3R,4R)-4-[(5-{[1-(3-Bromobenzyl)-5-methyl-1H-pyrazol-3-yl]carbonyl}pyrimidin-4-yl)amino]-3-fluoro-2-hydroxycyclopentyl}methyl sulfamate], the 50% inhibitory concentration (IC50) was under 0.01 µM and the inhibition at 0.111 µM is over 99%.

For `CCc1cc(C(=O)c2cncnc2N[C@@H]2C[C@H](COS(N)(=O)=O)[C@@H](O)[C@@H]2F)cn1Cc1cccc(Br)c1` [Compound I-187, {(1R,2R,3R,4R)-4-[(5-{[1-(3-Bromobenzyl)-5-ethyl-1H-pyrrol-3-yl]carbonyl}pyrimidin-4-yl)amino]-3-fluoro-2-hydroxycyclopentyl}methyl sulfamate], the IC50 is under 0.01 µM and the inhibition at 0.111 µM came out at 99%.

On to `COc1cccc(Cn2ccc(C(=O)c3cncnc3N[C@@H]3C[C@H](COS(N)(=O)=O)[C@@H](O)[C@@H]3F)c2)n1` [Compound I-188, [(1R,2R,3R,4R)-3-fluoro-2-hydroxy-4-{[5-({1-[(6-methoxypyridin-2-yl)methyl]-1H-pyrrol-3-yl}carbonyl)pyrimidin-4-yl]amino}cyclopentyl]methyl sulfamate], for which the IC50 was under 0.01 µM and the inhibition at 0.111 µM is 98%.

Take `NS(=O)(=O)OC[C@H]1C[C@@H](Nc2ncncc2C(=O)c2ccn(Cc3ccc(Cl)s3)c2)[C@@H](F)[C@@H]1O` [Compound I-189, [(1R,2R,3R,4R)-4-{[5-({1-[(5-chloro-2-thienyl)methyl]-1H-pyrrol-3-yl}carbonyl)pyrimidin-4-yl]amino}-3-fluoro-2-hydroxycyclopentyl]methyl sulfamate]: the IC50 is under 0.01 µM and the inhibition at 0.111 µM was determined as 100%.

Regarding `NS(=O)(=O)OC[C@H]1C[C@@H](Nc2ncncc2C(=O)c2ccn(Cc3ccc(F)c(F)c3)n2)[C@@H](O)[C@@H]1O` [Compound I-190, {(1R,2R,3R,4R)-4-[(5-{[1-(3,4-difluorobenzyl)-1H-pyrazol-3-yl]carbonyl}pyrimidin-4-yl)amino]-2,3-dihydroxycyclopentyl}methyl sulfamate], the IC50 was under 0.01 µM and the inhibition at 0.111 µM is 98%.

For the molecule `NS(=O)(=O)OC[C@H]1C[C@@H](Nc2ncncc2C(=O)c2ccn(Cc3ccc(Cl)cc3F)n2)C[C@@H]1O` [Compound I-191, {(1R,2S,4R)-4-[(5-{[1-(4-chloro-2-fluorobenzyl)-1H-pyrazol-3-yl]carbonyl}pyrimidin-4-yl)amino]-2-hydroxycyclopentyl}methyl sulfamate], the IC50 was under 0.01 µM and the inhibition at 0.111 µM amounted to 92%.
